According to patent US20230416205A1, “COMPOUNDS, COMPOSITIONS, AND METHODS” (Denali Therapeutics Inc, priority 2020, published 2023):
Like-named read-outs stand apart in the source and are kept apart here.

System: NLRP3
Assay: IL-1β secretion assay in PMA-differentiated, LPS/nigericin-stimulated THP-1 cells (384-well, ELISA read-out)
Assay type: cell-based, human
Experimental: Compounds as provided herein were tested in the following assay. Cell culture medium employed contained RPMI 1640 medium (89%), FBS (10%), Pen/Strep (1%), and 2-mercaptoethanol (0.05 mM). Freezing medium was made up of 90% FBS and 10% DMSO. THP-1 cells were removed from the liquid nitrogen and placed into a 37° C. water bath to thaw, until signs of ice dissipated. The cells were then added to 9 mL of warm cell culture medium and centrifuged for 5 minutes at 1000 rpm. The supernatant was discarded, and the cells were resuspended in new cell culture medium. THP-1 cells were then split and cultured in the cell culture medium, being passaged every 2-3 days with the cell density will be maintained between 5×10^5 and 1.5×10^6 viable cells/mL.
To freeze, cells were resuspended with fresh freezing medium, adjusting the cell density to 5×10^6 cells/mL. The cell suspension was partitioned into 1 mL aliquots per vial, and the vials were transferred to a −80° C. freezer. After one day at −80° C., the cell vials were transferred to liquid nitrogen freezer for storage.
PMA was dissolved in DMSO to make a stock solution at 5 mg/mL and stored in 10 μl aliquots at −20° C. for single use. PMA is added to normal growth medium. LPS was diluted with 1 mL of water solution to provide a 1 mg/mL stock solution and stored in 15 μl aliquots at −20° C. for single use. Nigericin is diluted in ice cold 100% ethanol to 5 mg/mL (6.7 mM) and stored in 75 μL aliquots at −20° C. for single use. Serum-free media contains RPMI 1640 medium (99%), Pen/Strep (1%), and 2-mercaptoethanol (0.05 mM). The two control conditions used to qualify and normalize test compound dose-response curves were as follows: High Control=25 ng/mL LPS, 5 μM Nigericin, 0.5% DMSO, Low Control=25 ng/mL, LPS, 0.5% DMSO.
THP-1 cells were diluted to provide a suspension at a concentration of 1.0×10^6 cells/mL with the total volume of suspension required to enable the desired number of assay plates. The growth media was supplemented with PMA (5 ng/mL final concentration) and the cells were incubated at 37° C. under a humidified atmosphere of 5% CO2 for 40 h.
All media was carefully aspirated from each culture flask. The cells were washed carefully with 1×DPBS. The cells were then briefly digested with trypsin LE for 5 minutes at 23° C., and immediately resuspended in cell growth media. After resuspension, the cells were centrifuged at 1000 rpm for 3 minutes and the supernatant was discarded. The cells were resuspended in DPBS and once again centrifuged at 1000 rpm for 5 minutes. The supernatant was discarded and the cell pellet was resuspended in serum-free media supplemented with LPS (25 ng/mL final concentration) to enable the distribution of 30K THP-1 cells within 45 μL of media into each well of 384-well PDL-coated plates. The 384-well plates were then incubated at 37° C. under a humidified atmosphere of 5% CO2 for 2 h. Following this period, test compounds were dispensed by Tecan across the desired concentration range with all wells normalized to a final 0.5% DMSO concentration. The plates were then incubated at 37° C. under a humidified atmosphere of 5% CO2 for 1 h. Following this period, 5 μL of the […] was added to each of the appropriate wells and plates were centrifuged at 1000 rpm for 30 seconds. The plates were the immediately reintroduced to the incubator at 37° C. under a humidified atmosphere of 5% CO2 for 2 h. After this time, 35 μL/well of supernatant was collected and transferred into v-bottom plate and centrifuged at 1000 rpm for 1 minute. These supernatant aliquots were analyzed using an IL-Iβ detection kit as described below. If needed, the test samples could be snap frozen and stored at −80° C. until analyzed.
To prepare each ELISA plate, capture antibody (mAb Mt175) was diluted with PBS to a final concentration of 2 μg/mL and then 20 μL of this solution was added to each well of the ELISA plate. Each plate was allowed to incubate overnight at 4° C.

[1] = Homo sapiens, THP-1, IL-1β secretion, PMA-differentiated THP-1 cells, LPS then nigericin stimulation, ELISA read at 450 nm, read-out: Activity
[2] = Table 4, IL-1β secretion, LPS/nigericin-stimulated THP-1 cells, read-out: IC50
[3] = IL-1β secretion, PMA-differentiated THP-1 cells, LPS then nigericin stimulation, ELISA read at 450 nm, read-out: Activity
[4] = Homo sapiens, THP-1, Table 4, IL-1β secretion, LPS/nigericin-stimulated THP-1 cells, read-out: IC50

SMILES	IC50 [1]	IC50 [2]	IC50 [3]	IC50 [4]
O=C(CN1C[C@@]2(C[C@@H]2F)c2cc(C(F)(F)F)ccc2C1=O)Nc1ncccn1 (single isomer, unassigned) [Example 240, 2-[(2′s,4r)-2′-fluoro-1-oxo-6-(trifluoromethyl)spiro[3H-isoquinoline-4,1′-cyclopropane]-2-yl]-N-pyrimidin-2-ylacetamide]	< 10 µM	1.22 µM	–	–
O=C(CN1C[C@@]2(C[C@@H]2F)c2cc(C(F)(F)F)ccc2C1=O)Nc1ncccn1 (single isomer, unassigned) [Example 241, 2-[(2′s,4r)-2′-fluoro-1-oxo-6-(trifluoromethyl)spiro[3H-isoquinoline-4,1′-cyclopropane]-2-yl]-N-pyrimidin-2-ylacetamide]	–	0.134 µM	< 10 µM	–
O=C(CN1C[C@@]2(C[C@@H]2F)c2cc(C(F)(F)F)ccc2C1=O)Nc1ncc(C(F)(F)F)cn1 (single isomer, unassigned) [Example 242, 2-[(2′s,4r)-2′-fluoro-1-oxo-6-(trifluoromethyl)spiro[3H-isoquinoline-4,1′-cyclopropane]-2-yl]-N-[5-(trifluoromethyl)pyrimidin-2-yl]acetamide]	< 10 µM	1.29 µM	–	–
O=C(CN1C[C@@]2(C[C@@H]2F)c2cc(C(F)(F)F)ccc2C1=O)Nc1ncc(C(F)(F)F)cn1 (single isomer, unassigned) [Example 243, 2-[(2′s,4r)-2′-fluoro-1-oxo-6-(trifluoromethyl)spiro[3H-isoquinoline-4,1′-cyclopropane]-2-yl]-N-[5-(trifluoromethyl)pyrimidin-2-yl]acetamide]	–	0.095 µM	< 10 µM	–
Cc1cnc(NC(=O)CN2C[C@@]3(C[C@@H]3F)c3cc(C(F)(F)F)ccc3C2=O)nc1 (single isomer, unassigned) [Example 244, 2-[(2′s,4r)-2′-fluoro-1-oxo-6-(trifluoromethyl)spiro[3H-isoquinoline-4,1′-cyclopropane]-2-yl]-N-(5-methylpyrimidin-2-yl)acetamide]	< 10 µM	0.075 µM	–	–
Cc1cnc(NC(=O)CN2C[C@@]3(C[C@@H]3F)c3cc(C(F)(F)F)ccc3C2=O)nc1 (single isomer, unassigned) [Example 245, 2-[(2′s,4r)-2′-fluoro-1-oxo-6-(trifluoromethyl)spiro[3H-isoquinoline-4,1′-cyclopropane]-2-yl]-N-(5-methylpyrimidin-2-yl)acetamide]	–	0.938 µM	< 10 µM	–
O=C(CN1CC2(CC2)c2cc([C@@]3(F)C[C@@H]3F)ccc2C1=O)Nc1ncc(F)cn1 (single isomer, unassigned) [Example 251, 2-[6-[(1r,2r)-1,2-difluorocyclopropyl]-1-oxospiro[3H-isoquinoline-4,1′-cyclopropane]-2-yl]-N-(5-fluoropyrimidin-2-yl)acetamide]	< 10 µM	–	–	0.55 µM
O=C(CN1CC2(CC2)c2cc([C@@]3(F)C[C@@H]3F)ccc2C1=O)Nc1ncc(F)cn1 (single isomer, unassigned) [Example 252, 2-[6-[(1r,2r)-1,2-difluorocyclopropyl]-1-oxospiro[3H-isoquinoline-4,1′-cyclopropane]-2-yl]-N-(5-fluoropyrimidin-2-yl)acetamide]	–	0.454 µM	< 10 µM	–
O=C(CN1CC2(CC2)c2cc([C@@]3(F)C[C@H]3F)ccc2C1=O)Nc1ncc(F)cn1 (single isomer, unassigned) [Example 253, 2-[6-[(1r,2s)-1,2-difluorocyclopropyl]-1-oxospiro[3H-isoquinoline-4,1′-cyclopropane]-2-yl]-N-(5-fluoropyrimidin-2-yl)acetamide]	< 10 µM	–	–	0.597 µM
O=C(CN1CC2(CC2)c2cc([C@@]3(F)C[C@H]3F)ccc2C1=O)Nc1ncc(F)cn1 (single isomer, unassigned) [Example 254, 2-[6-[(1r,2s)-1,2-difluorocyclopropyl]-1-oxospiro[3H-isoquinoline-4,1′-cyclopropane]-2-yl]-N-(5-fluoropyrimidin-2-yl)acetamide]	–	0.434 µM	< 10 µM	–
C[C@@H]1[C@H](F)[C@]12CN(CC(=O)Nc1ncc(F)cn1)C(=O)c1ccc(Br)cc12 (single isomer, unassigned) [Example 277, 2-[(2′s,3′s,4r)-6-bromo-2′-fluoro-3′-methyl-1-oxospiro[3H-isoquinoline-4,1′-cyclopropane]-2-yl]-N-(5-fluoropyrimidin-2-yl)acetamide]	< 10 µM	0.021 µM	–	–
C[C@@H]1[C@H](F)[C@]12CN(CC(=O)Nc1ncc(F)cn1)C(=O)c1ccc(Br)cc12 (single isomer, unassigned) [Example 278, 2-[(2′s,3′s,4r)-6-bromo-2′-fluoro-3′-methyl-1-oxospiro[3H-isoquinoline-4,1′-cyclopropane]-2-yl]-N-(5-fluoropyrimidin-2-yl)acetamide]	–	1.79 µM	< 10 µM	–
C[C@H]1C[C@]12CN(CC(=O)Nc1ncc(F)cn1)C(=O)c1ccc(Br)cc12 (single isomer, unassigned) [Example 279, 2-[(2′s,4s)-6-bromo-2′-methyl-1-oxospiro[3H-isoquinoline-4,1′-cyclopropane]-2-yl]-N-(5-fluoropyrimidin-2-yl)acetamide]	> 15 µM	22.4 µM	–	–
C[C@H]1C[C@]12CN(CC(=O)Nc1ncc(F)cn1)C(=O)c1ccc(Br)cc12 (single isomer, unassigned) [Example 280, 2-[(2′s,4s)-6-bromo-2′-methyl-1-oxospiro[3H-isoquinoline-4,1′-cyclopropane]-2-yl]-N-(5-fluoropyrimidin-2-yl)acetamide]	–	2.37 µM	< 10 µM	–
C[C@H]1C[C@@]12CN(CC(=O)Nc1ncc(F)cn1)C(=O)c1ccc(Br)cc12 (single isomer, unassigned) [Example 281, 2-[(2′s,4r)-6-bromo-2′-methyl-1-oxospiro[3H-isoquinoline-4,1′-cyclopropane]-2-yl]-N-(5-fluoropyrimidin-2-yl)acetamide]	< 10 µM	0.108 µM	–	–
C[C@H]1C[C@@]12CN(CC(=O)Nc1ncc(F)cn1)C(=O)c1ccc(Br)cc12 (single isomer, unassigned) [Example 282, 2-[(2′s,4r)-6-bromo-2′-methyl-1-oxospiro[3H-isoquinoline-4,1′-cyclopropane]-2-yl]-N-(5-fluoropyrimidin-2-yl)acetamide]	–	1.05 µM	< 10 µM	–
O=C(CN1C[C@@]2(C[C@@H]2Cl)c2cc(Br)ccc2C1=O)Nc1ncc(F)cn1 (single isomer, unassigned) [Example 283, 2-[(2′r,4s)-6-bromo-2′-chloro-1-oxospiro[3H-isoquinoline-4,1′-cyclopropane]-2-yl]-N-(5-fluoropyrimidin-2-yl)acetamide]	< 10 µM	0.101 µM	–	–
O=C(CN1C[C@@]2(C[C@@H]2Cl)c2cc(Br)ccc2C1=O)Nc1ncc(F)cn1 (single isomer, unassigned) [Example 284, 2-[(2′r,4s)-6-bromo-2′-chloro-1-oxospiro[3H-isoquinoline-4,1′-cyclopropane]-2-yl]-N-(5-fluoropyrimidin-2-yl)acetamide]	–	0.05 µM	< 10 µM	–
